Source: publication PMC12652692, “Synthesis and In Vitro Anticancer Evaluation of Novel Phosphonium Derivatives of Chrysin” (International Journal of Molecular Sciences, 2025)

Key:
[1] = system: 60 human cancer cell lines; assay: NCI60 five-dose screen, overall mean; type: cell-based; conditions: mean over all 60 cell lines
Description: Since all new conjugates (3a–h) had notable antiproliferative activities on several tumor cell lines in the course of the one-dose screening, they were subjected to a five-dose test. […] J. Mol. Sci. 2025, 26, 11063 10 of 10 S.3. NCI60 Screening A detailed description of the NCI screening procedures can also be found on the website of NCI [39], and in our previous work. S.3.1. One-Dose Screen All candidates were examined at first at a single high dose (10 μM) in the full NCI60 cell panel. The value reported for the one-dose test is growth relative to the no-drug control and relative to the time zero number of cells. This made possible the disclosure of both growth inhibition (numbers between 0 and 100) and lethality (numbers less than 0). For example, a value of 100 means no growth inhibition. A value of 20 would mean 80% growth inhibition. A value of 0 means no net growth over the course of the analysis. A value of −20 would mean 20% lethality. A value of −100 means all cells are dead. S.3.2. […] The human tumor cell lines of the cancer screening panel were grown in RPMI 1640 medium containing 5% fetal bovine serum and 2 mM l-glutamine. Characteristically, cells were injected in 96-well microtiter plates in 0.1 mL at plating densities ranging from 5000 to 40,000 cells/well, depending on the doubling time of individual cell lines. After cell inoculation, the microtiter plates were incubated at 37 °C, 5% carbon dioxide, 95% air, and 100% relative humidity for 24 hours before the addition of tested compounds. After 24 hours, 2 plates of each cell line were fixed in situ with Cl3COOH (TCA), to represent a measurement of the cell population for each cell line at the time of drug addition (tz). Tested compounds were solubilized in DMSO at 400-fold the desired final maximum test concentration and stored frozen before application. In the course of the drug addition, an aliquot of frozen concentrate was thawed and diluted to twice the desired final maximum test concentration with a complete medium containing 50 μg mL−1 gentamicin. Additional four, 10-fold or ½ log serial dilutions were produced to furnish a total of five drug concentrations plus control. Aliquots of 0.1 mL of these different drug dilutions were added to the appropriate microtiter wells already containing 0.1 mL of medium, resulting in the required final drug concentrations. Following drug addition, the plates were incubated at 37 °C, 5% carbon dioxide, 95% air, and 100% relative humidity for an additional 48 hours. For adherent cells, the test was finished by the addition of cold Cl3COOH. Cells were fixed in situ by the addition of 50 μL of cold 50% (w/v) Cl3COOH, and incubated at 4 °C for 1 hour. The supernatant was discarded, and the plates were washed with H2O (5×) and dried in air. Sulforhodamine B (SRB) solution (0.1 mL) at 0.4% (w/v) in 1% CH3COOH was added to each well, and plates were incubated at RT for 10 min. After staining, the unbound dye was removed by washing five times with 1% CH3COOH, and the plates were dried in the air. The bound stain is afterward solubilized with a 10 mM trizma base, and the absorbance is read on an automated plate reader at λ = 515 nm. Utilizing the seven absorbance measurements [time zero (tz), control growth (c), and test growth in the presence of the drug at the five concentration levels (ti)], the percentage growth was determined at each of the drug concentration levels. Growth inhibition (%) was calculated as: [(ti − tz)/(c − tz)] × 100, for concentrations where ti ≥ tz (1) [(ti − tz)/(tz)] × 100, for concentrations where ti < tz. (2) Three dose‒response parameters were calculated as follows. GI50 (growth inhibition of 50%) was determined from Equation (3), which is the drug concentration resulting in a 50% reduction in the net protein increase (as measured by SRB staining) in control cells in the course of the drug incubation. [(ti − tz)/(c − tz)] × 100 = 50 (3)

[2] = system: non-tumor CHO cells; assay: CellTiter-Glo Luminescent Cell Viability Assay; type: cell-based, Chinese hamster; conditions: 48 h; for IC50: Cricetulus griseus, non-tumor CHO cells, read-out: Estimated IC50
Description: (§1) Given their potent antiproliferative effects on tumor cells, two conjugates were selected for testing on non-tumor CHO cells to investigate their selectivity. […] Cell viability of non-tumor CHO cells was assessed using the CellTiter-Glo Luminescent Cell Viability Assay (Promega, Madison, WI, USA), following treatment with 3a and 3f. Stock solutions (10 mM in DMSO) were stored frozen until use. CHO cells were cultured in complete DMEM (low glucose, 1 g/L) supplemented with 10% fetal bovine serum, 1% GlutaMAX-I, 1% non-essential amino acids, and 0.1% penicillin–streptomycin. Cells were seeded into opaque 96-well plates (5000 cells/100 µL/well), with peripheral wells filled with sterile PBS to minimize edge effects. After overnight incubation (37 °C, 5% CO2), cells were treated with increasing concentrations of the compounds (10^−5, 10^−6, and 10^−7 M) diluted in complete DMEM. Untreated cells served as controls, and complete DMEM was used to determine background luminescence. DMSO controls corresponding to the solvent concentrations of each treatment condition were also included; no significant effect on cell viability was observed. After 48 h, CellTiter-Glo reagent was added, and luminescence was measured using an EnSpire AlphaLisa microplate reader (Perkin Elmer). Relative light unit (RLU) values were normalized to untreated controls (100% viability). Non-linear regression analysis was performed in GraphPad Prism 8.0.1 to estimate IC50 values by fitting sigmoidal dose–response curves (log[inhibitor] vs. normalized response, variable slope).

[3] = system: K-562; assay: NCI60 five-dose screen; type: cell-based; conditions: Homo sapiens, K562; K-562, Leukemia
How it was run: (§2)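 Growth was quantified by sulforhodamine B protein staining after cells had been treated for 48 h with five serially diluted compound concentrations. GI50 values were derived from percentage growth relative to time-zero and untreated controls.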

[4] = system: NCI-H226; assay: NCI60 five-dose screen; type: cell-based; conditions: Homo sapiens; NCI-H226, Non-small-Cell Lung Cancer
How it was run: as §2

[5] = system: SK-MEL-5; assay: NCI60 five-dose screen; type: cell-based; conditions: Homo sapiens; SK-MEL-5, Melanoma
How it was run: as §2

[6] = CellTiter-Glo Luminescent Cell Viability Assay; type: cell-based, Chinese hamster; conditions: Chinese hamster, CHO cells (non-tumor), CHO cells, 10^−6 M
Description: as §1

[7] = system: 60 human cancer cell lines; parameters: method as in doi:10.3311/PPch.21919, PMID 34874114; conditions: previous work ref 24, 26; cited from earlier work

SMILES | GI50 [1] [nM] | cell viability ([2]; CHO cells, 10^−6 M) | IC50 [2] [nM] | GI50 [3] [nM] | GI50 [4] [nM] | GI50 [5] [nM] | viability at 48 h [6] [%] | antiproliferative effects (in words) [7]
O=c1cc(-c2ccccc2)oc2cc(OCCCC[P+](c3ccccc3)(c3ccccc3)c3ccccc3)cc(O)c12 [3a] | 455 | minimally affected | 2650 | 216 | 354 | 166 |  | 
Cc1ccc([P+](CCCCOc2cc(O)c3c(=O)cc(-c4ccccc4)oc3c2)(c2ccc(C)cc2)c2ccc(C)cc2)cc1 [3b] | 322 |  |  | 137 | 277 | 153 |  | 
COc1ccc([P+](CCCCOc2cc(O)c3c(=O)cc(-c4ccccc4)oc3c2)(c2ccc(OC)cc2)c2ccc(OC)cc2)cc1 [3c] | 565 |  |  | 376 | 606 | 331 |  | 
O=c1cc(-c2ccccc2)oc2cc(OCCCC[P+](c3ccc(F)cc3)(c3ccc(F)cc3)c3ccc(F)cc3)cc(O)c12 [3d] | 2050 |  |  | 1400 | 1820 | 1510 |  | 
O=c1cc(-c2ccccc2)oc2cc(OCCCC[P+](C3CCCCC3)(C3CCCCC3)C3CCCCC3)cc(O)c12 [3e] | 957 |  |  | 402 | 1100 | 369 |  | 
COc1c(C)cc([P+](CCCCOc2cc(O)c3c(=O)cc(-c4ccccc4)oc3c2)(c2cc(C)c(OC)c(C)c2)c2cc(C)c(OC)c(C)c2)cc1C [3f] | 312 |  | 1150 | 34 | 249 | 168 | 60.2 ± 2.9 | 
Cc1ccccc1[P+](CCCCOc1cc(O)c2c(=O)cc(-c3ccccc3)oc2c1)(c1ccccc1C)c1ccccc1C [3g] | 437 |  |  | 279 | 399 | 198 |  | 
O=c1cc(-c2ccccc2)oc2cc(OCCCC[P+](c3ccccc3)(c3ccccc3)c3ccccn3)cc(O)c12 [3h] | 949 |  |  | 189 | 1560 | 278 |  | 
O=c1cc(-c2ccccc2)oc2cc(O)cc(O)c12 [compound 2, 5,7-dihydroxyflavone, reference compound] |  |  |  |  |  |  |  | does not exert remarkable antiproliferative effects
